Experimental data taken from ChEMBL document CHEMBL6109044, “From challenges to solutions: A review of fourth-generation EGFR tyrosine kinase inhibitors to overcome the C797S triple mutation in non-small cell lung cancer” (Eur J Med Chem, 2025).

Tests used:
[1] = target: T1, Epidermal growth factor receptor (Homo sapiens, UniProt P00533); assay: Inhibition of wild type EGFR (unknown origin)
[2] = target: T2, Epidermal growth factor receptor (Homo sapiens, UniProt P00533, C797S/L858R/T790M); assay: Inhibition of EGFR L858R/T790M/C797S triple mutant (unknown origin)
[3] = Antiproliferative activity against mouse Ba/F3 EGFR-Del19/T790M/C797S cells assessed as reduction in cell growth incubated for 72 hrs by CCK-8 assay; assay type: functional, cell-based
[4] = Antiproliferative activity against mouse Ba/F3 EGFR-T790M/C797S/L858R cells assessed as reduction in cell growth incubated for 72 hrs by CCK-8 assay; assay type: functional, cell-based
NIH3T3 [5] = assay: Antiproliferative activity against mouse NIH3T3 cells harboring EGFR del19/T790M/C797S assessed as reduction in cell growth measured for 4 to 7 days by CellTiter-Glo Luminescent assay; assay type: functional, cell-based
[6] = Antiproliferative activity against mouse Ba/F3 EGFR cells; assay type: functional, cell-based
[7] = Antiproliferative activity against mouse Ba/F3 EGFR-Del19/T790M/C797S cells; assay type: functional, cell-based
NIH3T3 [8] = assay: Antiproliferative activity against mouse NIH3T3 cells harboring EGFR L858R/T790M/C797S assessed as reduction in cell growth measured for 4 to 7 days by CellTiter-Glo Luminescent assay; assay type: functional, cell-based
cells = conditions: Mus musculus, Ba/F3 EGFR-T790M/C797S/L858R
[9] = test system: Epidermal growth factor receptor (Homo sapiens), P00533 [L858R,T790M,C797S]; conditions: dose 0.05 nM
[10] = test system: Epidermal growth factor receptor (Homo sapiens), P00533 [L858R,T790M,C797S]; conditions: dose 1.0 nM
[11] = Antiproliferative activity against human NCI-H1975 EGFR T790M/C797S/L858R cells; assay type: functional, cell-based
[12] = target: Epidermal growth factor receptor (Homo sapiens, UniProt P00533, L858R/T790M); assay: Inhibition of EGFR L858R/T790M double mutant (unknown origin)
A549 = assay: Antiproliferative activity against human A549 cells; assay type: functional, cell-based
[13] = target: T2, Epidermal growth factor receptor; assay: Inhibition of EGFR L858R/T790M/C797S triple mutant (unknown origin) at 20 nM relative to control
[14] = target: T1, Epidermal growth factor receptor; assay: Inhibition of wild type EGFR (unknown origin) by HTRF assay
[15] = Antiproliferative activity against mouse Ba/F3 EGFR-Del19/T790M/C797S cells assessed as reduction in cell viability at 10 uM incubated for 72 hrs by MTT assay relative to control; assay type: functional
[16] = target: Epidermal growth factor receptor (Homo sapiens, UniProt P00533, C797S/EX19DEL/T790M); assay: Inhibition of EGFR Del19/T790M/C797S triple mutant (unknown origin)
[17] = test system: Epidermal growth factor receptor (Homo sapiens), P00533 [L858R,T790M,C797S]; conditions: dose 200.0 nM, tested as the 2H-labelled form

T1 sequence (P00533 whole entry): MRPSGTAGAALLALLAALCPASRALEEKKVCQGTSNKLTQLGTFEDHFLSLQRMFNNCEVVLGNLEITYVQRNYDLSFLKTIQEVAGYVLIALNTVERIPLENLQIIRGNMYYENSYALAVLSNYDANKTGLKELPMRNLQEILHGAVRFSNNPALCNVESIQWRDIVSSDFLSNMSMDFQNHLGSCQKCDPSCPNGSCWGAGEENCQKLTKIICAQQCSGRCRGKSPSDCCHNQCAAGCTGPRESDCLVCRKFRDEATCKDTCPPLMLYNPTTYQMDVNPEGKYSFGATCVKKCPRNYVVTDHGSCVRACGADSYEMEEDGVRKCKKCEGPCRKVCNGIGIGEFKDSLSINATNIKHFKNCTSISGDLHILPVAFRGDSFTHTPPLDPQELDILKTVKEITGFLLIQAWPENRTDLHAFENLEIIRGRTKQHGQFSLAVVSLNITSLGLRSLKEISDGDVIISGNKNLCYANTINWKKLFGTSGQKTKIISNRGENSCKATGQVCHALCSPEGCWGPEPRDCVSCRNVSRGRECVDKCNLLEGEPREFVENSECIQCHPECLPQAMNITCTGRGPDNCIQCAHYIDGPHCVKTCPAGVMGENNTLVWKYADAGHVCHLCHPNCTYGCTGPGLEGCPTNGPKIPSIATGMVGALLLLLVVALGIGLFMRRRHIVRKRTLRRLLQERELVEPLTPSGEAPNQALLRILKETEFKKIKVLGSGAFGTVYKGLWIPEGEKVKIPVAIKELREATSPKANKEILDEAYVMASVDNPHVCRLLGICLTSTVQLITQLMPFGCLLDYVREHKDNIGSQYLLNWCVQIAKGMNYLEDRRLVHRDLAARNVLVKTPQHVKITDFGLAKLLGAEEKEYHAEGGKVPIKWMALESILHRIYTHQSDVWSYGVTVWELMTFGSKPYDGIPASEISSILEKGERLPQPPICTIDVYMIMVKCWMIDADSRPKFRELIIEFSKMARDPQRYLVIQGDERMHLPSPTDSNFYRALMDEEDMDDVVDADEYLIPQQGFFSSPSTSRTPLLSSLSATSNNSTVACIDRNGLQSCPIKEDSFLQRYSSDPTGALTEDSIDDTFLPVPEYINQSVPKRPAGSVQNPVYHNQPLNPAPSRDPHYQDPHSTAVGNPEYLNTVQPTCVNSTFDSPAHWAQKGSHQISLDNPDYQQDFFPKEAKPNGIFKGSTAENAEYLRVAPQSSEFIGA
Chain of Epidermal growth factor receptor (Homo sapiens), P00533 [L858R,T790M,C797S] (P00533 whole entry T790M/C797S/L858R): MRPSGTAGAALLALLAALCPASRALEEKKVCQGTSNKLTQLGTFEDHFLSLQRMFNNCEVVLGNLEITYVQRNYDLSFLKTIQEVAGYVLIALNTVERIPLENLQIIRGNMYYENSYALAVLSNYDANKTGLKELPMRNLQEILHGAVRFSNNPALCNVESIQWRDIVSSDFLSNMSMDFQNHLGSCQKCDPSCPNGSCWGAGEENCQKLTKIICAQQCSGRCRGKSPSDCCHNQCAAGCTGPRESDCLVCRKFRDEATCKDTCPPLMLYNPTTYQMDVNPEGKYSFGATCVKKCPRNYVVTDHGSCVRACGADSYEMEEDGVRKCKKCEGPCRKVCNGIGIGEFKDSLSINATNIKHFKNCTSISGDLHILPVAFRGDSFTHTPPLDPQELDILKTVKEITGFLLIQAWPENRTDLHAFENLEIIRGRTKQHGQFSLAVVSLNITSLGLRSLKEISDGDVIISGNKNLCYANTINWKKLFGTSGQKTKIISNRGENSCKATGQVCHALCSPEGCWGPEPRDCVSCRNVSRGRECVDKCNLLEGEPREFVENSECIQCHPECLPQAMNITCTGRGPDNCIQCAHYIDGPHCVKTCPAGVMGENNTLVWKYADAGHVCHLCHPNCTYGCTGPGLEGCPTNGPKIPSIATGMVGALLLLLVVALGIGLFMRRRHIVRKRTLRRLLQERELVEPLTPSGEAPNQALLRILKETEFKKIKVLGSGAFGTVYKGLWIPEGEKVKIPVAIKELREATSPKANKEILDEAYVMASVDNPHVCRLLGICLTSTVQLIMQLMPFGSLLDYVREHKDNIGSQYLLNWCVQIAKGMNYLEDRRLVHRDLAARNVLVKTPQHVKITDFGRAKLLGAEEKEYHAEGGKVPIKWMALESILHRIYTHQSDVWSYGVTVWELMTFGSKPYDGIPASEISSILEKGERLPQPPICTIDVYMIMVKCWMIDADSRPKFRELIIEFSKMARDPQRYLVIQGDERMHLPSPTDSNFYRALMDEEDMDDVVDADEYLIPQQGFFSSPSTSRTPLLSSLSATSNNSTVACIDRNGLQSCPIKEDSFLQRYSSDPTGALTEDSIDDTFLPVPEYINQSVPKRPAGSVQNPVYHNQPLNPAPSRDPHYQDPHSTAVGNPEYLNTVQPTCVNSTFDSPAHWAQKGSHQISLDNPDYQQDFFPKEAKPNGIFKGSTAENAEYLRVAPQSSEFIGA
T2 sequence (P00533 25-1210 T790M/C797S/L858R limits assumed): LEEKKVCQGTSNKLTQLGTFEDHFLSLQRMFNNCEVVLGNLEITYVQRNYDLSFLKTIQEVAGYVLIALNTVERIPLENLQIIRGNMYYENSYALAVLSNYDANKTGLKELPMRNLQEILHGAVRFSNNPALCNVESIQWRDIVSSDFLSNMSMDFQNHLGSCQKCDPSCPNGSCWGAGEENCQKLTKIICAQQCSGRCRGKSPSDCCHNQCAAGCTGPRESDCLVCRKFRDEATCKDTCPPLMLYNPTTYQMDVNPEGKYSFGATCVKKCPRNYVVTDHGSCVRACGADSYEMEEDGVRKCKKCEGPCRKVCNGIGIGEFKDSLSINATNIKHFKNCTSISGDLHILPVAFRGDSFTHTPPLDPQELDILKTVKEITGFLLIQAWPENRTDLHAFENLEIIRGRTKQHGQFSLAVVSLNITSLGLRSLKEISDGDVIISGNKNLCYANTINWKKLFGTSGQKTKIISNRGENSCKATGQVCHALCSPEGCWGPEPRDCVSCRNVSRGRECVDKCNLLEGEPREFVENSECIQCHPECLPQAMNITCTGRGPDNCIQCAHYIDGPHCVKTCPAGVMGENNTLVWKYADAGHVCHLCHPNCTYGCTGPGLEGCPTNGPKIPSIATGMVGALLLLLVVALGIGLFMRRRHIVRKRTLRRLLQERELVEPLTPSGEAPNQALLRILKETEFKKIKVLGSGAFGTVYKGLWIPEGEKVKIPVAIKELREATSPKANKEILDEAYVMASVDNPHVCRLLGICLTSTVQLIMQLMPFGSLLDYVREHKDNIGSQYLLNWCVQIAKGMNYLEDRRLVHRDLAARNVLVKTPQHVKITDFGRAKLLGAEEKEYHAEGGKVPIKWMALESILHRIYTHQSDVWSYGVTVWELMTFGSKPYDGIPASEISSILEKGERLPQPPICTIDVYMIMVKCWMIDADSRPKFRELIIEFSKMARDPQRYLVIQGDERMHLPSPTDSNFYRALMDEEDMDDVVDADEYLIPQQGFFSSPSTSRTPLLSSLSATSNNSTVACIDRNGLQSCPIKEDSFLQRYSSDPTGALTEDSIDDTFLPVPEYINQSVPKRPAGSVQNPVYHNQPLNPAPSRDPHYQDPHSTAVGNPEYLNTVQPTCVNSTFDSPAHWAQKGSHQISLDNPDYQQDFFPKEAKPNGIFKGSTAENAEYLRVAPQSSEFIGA
Chain of Epidermal growth factor receptor (Homo sapiens, UniProt P00533, C797S/EX19DEL/T790M) (P00533 whole entry, looked up, stated change not applied): as the sequence (P00533 whole entry) above

N#Cc1ccc(O)c(-c2nc(NCc3cccnc3)c3ccccc3n2)c1
IC50 [1]: > 50 nM

C=CC(=O)C1CCC[C@@H](n2nc(-c3ccc4ccccc4c3)c3c(N)ncnc32)C1 (stereo partly drawn)
IC50 [2]: 88 nM | IC50 [1]: 16 nM

CN1CCN(c2ccc(Nc3ncc(Cl)c(Nc4ccccc4P(C)(C)=O)n3)cc2Br)CC1
IC50 [3]: 120 nM | IC50 [4]: 90 nM

C=CC(=O)Nc1cc(Nc2nccc(-c3cn(C)c4ccccc34)n2)c(OC)cc1N(C)CCN(C)C [OSIMERTINIB]
IC50 (NIH3T3 [5]): 1200 nM | IC50 [3]: 3380 nM | IC50 [6]: 171 nM | IC50 [4]: 4140 nM | IC50 [7]: > 1000 nM | IC50 (NIH3T3 [8]): 2700 nM | IC50 (cells): > 1000 nM

COc1cc(N2CCC(N3CCN(C)CC3)CC2)ccc1Nc1ncc(Cl)c(Nc2ccccc2P(C)(C)=O)n1 [BRIGATINIB]
inhibition [9]: 4.82% | inhibition [10]: 57% | IC50 [7]: 139 nM | IC50 (cells): 15.6 nM

N#Cc1ccc(O)c(-c2nc(NCc3ncccn3)c3ccccc3n2)c1
IC50 [11]: 1200 nM

CN1CCC(c2ccc(-c3ccc4c(c3)C(=O)N(C(C(=O)Nc3nccs3)c3cc(F)ccc3O)C4)cc2)CC1 (stereo not drawn)
IC50 [2]: 0.083 nM | IC50 [12]: 0.063 nM

CCc1cc(Nc2ncc(Cl)c(Nc3ccc(C)c(C)c3P(C)(C)=O)n2)c(OC)cc1N1CC2(CCN(C)CC2)C1
IC50 [6]: > 1000 nM | IC50 [7]: 128 nM | IC50 (cells): 43.3 nM

CC(C)n1c2cc(Nc3ccnc(-c4cnn(S(=O)(=O)C5CC5)c4)n3)ncc2c2c(OCC(F)(F)F)cc(N3CCN(C)CC3)cc21
IC50 (NIH3T3 [5]): 20 nM | IC50 (NIH3T3 [8]): 45 nM | IC50 [1]: 0.92 nM

[2H]C([2H])([2H])c1cc(Nc2ncc(Br)c(Nc3ccccc3NS(=O)(=O)C3CC3)n2)ccc1N1CCN(C([2H])([2H])[2H])CC1
IC50 (A549): 957 nM | inhibition [13]: 97.2% | IC50 [7]: 12 nM | IC50 (cells): 16 nM

CCC(=O)N[C@H]1CC[C@@H](N2C(=O)N(c3ccccc3Cl)Cc3cnc(Nc4ccc(N5CCN(C)CC5)c(C)c4)nc32)CC1
IC50 [4]: 320 nM

CCC(=O)Nc1cccc(-c2c(-c3ccc(N4CCN(C)CC4)cc3)[nH]c3ncnc(OCC(C)C)c23)c1
IC50 [14]: 0.4 nM

Oc1ccccc1-c1nc(NCC2CCOC2)c2ccccc2n1 (stereo not drawn)
Activity [15]: 91%

COc1cc(N2CCC(N3CCN(C)CC3)CC2)ccc1Nc1ncc(Cl)c(Nc2ccccc2NS(C)(=O)=O)n1
IC50 [16]: 5 nM | IC50 [2]: 8 nM | IC50 [1]: 184 nM

Cc1cc(Nc2ncc(Br)c(Nc3ccccc3NS(=O)(=O)C3CC3)n2)ccc1N1CCN(C)CC1
inhibition [17]: 99% | inhibition ([9]; tested as the 2H-labelled form): 59% | inhibition ([10]; tested as the 2H-labelled form): 86.9%
